US11578040B2, “[5]Helicene derivatives as molecular reporters for diagnostic applications and methods of synthesis therefor” (NATIONAL SCIENCE AND TECHNOLOGY DEVELOPMENT AGENCY, priority 2016, dated 2023)

Experiments:
antigen = assay: Testing of binding reactivity of antibody after conjugation with molecular reporter on 96-well plates (HRP-labeled anti-mouse antibody, signal at 450 nm); conditions: 2 μg/mL conjugated antibody, antigen-coated 96-well plate
Protocol: The binding reactivity of antibody conjugating molecular reporter (compound 6, compound 8, and compound 14) to antigen could be tested with an immobilization of antigen on wells of 96-well plates. The molecular reporter conjugated antibody was added into the wells. The antibody would bind to the antigen coating wells. Horseradish peroxidase labeled antibody specific to mouse antibody was used as a reporter molecule for reporting binding reactivity. The results of molecular reporter conjugated antibody were compared with results of antibody without molecular reporter conjugation.
The method for testing binding reactivity of molecular reporter conjugated antibody and antigen in 96-well plate consists of the following steps. • a) Prepare 2 μg/mL of antigen in carbonate buffer containing 50 mM carbonate, pH 9.6, and immobilize antigen (100 μL/well) in 96-well plate. • b) Incubate 96-well plate in step 1 at 4° C. for 12-16 hours. • c) Block non-specific binding with 300 μL/well of 2% bovine serum albumin in phosphate-buffered saline containing 0.05% Tween (PBST), and incubate at room temperature for 1 hour. • d) Wash 96-well plates in step 3 with 300 μL/well of PBST for 3 times. • e) Add 100 μL/ well of 2 μg/mL of antibody conjugating molecular reporter (compound 6, compound 8, and compound 14), and incubate at room temperature for 1 hour. • f) Wash 96-well plates in step 5 with 300 μL/well of PBST for 3 times. • g) Add 100 μL/well of horseradish peroxidase labeled antibody specific to mouse antibody (dilution at 1:10,000), and incubate at room temperature for 1 hour. • h) Wash 96-well plates in step 7 with 300 μL/well of PBST for 3 times. • i) Add 100 μL/well of substrate solution for horseradish peroxidase which is 3,3′,5,5′-Tetramethylbenzidine, and incubate at room temperature for 30 minutes. • j) Add 50 μL/well of sulfuric acid (H2SO4) for stop reaction. • k) Measure signals at 450 nm.

Row | SMILES | binding of antibody conjugating molecular reporter to antigen (FIG. 5) (antigen) | effect of molecular reporter on binding reactivity of antibody compared with antibody without any conjugation (FIG. 5) (antigen) | melting point [°C]
1 | N#Cc1c(C#N)c2ccc3cc(OCCCCCC(=O)O)ccc3c2c2c1ccc1cc(OCCCCCC(=O)O)ccc12 [compound 6, 6,6′-((3,4-dicyanodibenzo[c,g]phenanthrene-8,13-diyl)bis(oxy))dihexanoic acid] | antibody could bind to antigen | did not affect the binding reactivity of antibody | –
2 | N#Cc1c(C#N)c2c(c3c1CCc1cc(OCCCCCC=O)ccc1-3)-c1ccc(OCCCCCC=O)cc1CC2 [compound 8, 8,13-bis((6-oxohexyl)oxy)-1,2,5,6-tetrahydrodibenzo[c,g]phenanthrene-3,4-dicarbonitrile] | antibody could bind to antigen | did not affect the binding reactivity of antibody | 135 to 139
